Laboratory results reported in ChEMBL document CHEMBL4316626, “N-Acyl pyrazoles: Effective and tunable inhibitors of serine hydrolases” (Bioorg Med Chem, 2019).

Assay: Inhibition of recombinant rat FAAH deltaTM mutant expressed in Escherichia coli using 14C-labeled oleamide as substrate preincubated for 3 hrs followed by substrate addition and measured by TLC based Dixon-plot analysis
Details: read-out: Ki(app)

Row | SMILES | Ki [µM]
1 | Cc1cnn(C(=O)N(C)CCN(C)Cc2ccc(Oc3ccccc3)cc2)c1 | 0.055
2 | N#Cc1cnn(C(=O)OCc2ccc(OCc3ccccc3)cc2)c1 | 0.145
3 | O=C(NCCCc1ccccc1)n1cccn1 | 0.98
4 | N#Cc1cnn(C(=O)N2CCCN(Cc3cccc(Oc4ccccc4)c3)CC2)c1 | 0.00023
5 | O=C(N1CCCN(Cc2cccc(Oc3ccccc3)c2)CC1)n1cccn1 | 0.0063
6 | O=C(OCc1ccc(OCc2ccccc2)cc1)n1cccn1 | 0.26
7 | O=C(OCCCc1ccccc1)n1cccn1 | > 5
8 | O=C(Cc1ccc(-c2ccccc2)cc1)n1cccn1 | > 5
9 | O=C(NCCCCCc1ccccc1)n1cccn1 | 0.28
10 | Cc1cnn(C(=O)N2CCN(Cc3ccc(-c4ccccc4)cc3)CC2)c1 | 0.17
11 | Cc1cnn(C(=O)OCc2ccc(-c3ccccc3)cc2)c1 | > 5
12 | Cc1cnn(C(=O)NCc2ccc(Oc3ccccc3)cc2)c1 | 0.29
13 | O=C(OCCCCCc1ccccc1)n1cccn1 | > 5
14 | CN(CCN(C)C(=O)n1cccn1)Cc1cccc(Oc2ccccc2)c1 | 0.0057
15 | O=C(N1CCCN(Cc2cccc(OCc3ccccc3)c2)CC1)n1cccn1 | 0.012
16 | N#Cc1cnn(C(=O)Oc2ccc3ccccc3c2)c1 | > 5
17 | CC(C)(C)OC(=O)N1CCN(C(=O)n2cc(C#N)cn2)CC1 | 0.055
18 | CC(C)(C)OC(=O)N1CCCN(C(=O)n2cccn2)CC1 | 0.62
19 | O=C(N1CCCN(Cc2ccc(Oc3ccccc3)cc2)CC1)n1cccn1 | 0.0093
20 | O=C(Nc1ccc2ccccc2c1)n1cccn1 | > 5
21 | O=C(N1CCN(Cc2cccc(OCc3ccccc3)c2)CC1)n1cccn1 | 0.0058
22 | N#Cc1cnn(C(=O)NCCCCc2ccccc2)c1 | 0.018

Row | SMILES | Ki [µM]
23 | O=C(N1CCN(Cc2ccc3ccccc3c2)CC1)n1cc(Br)cn1 | 0.00047
24 | N#Cc1cnn(C(=O)NCc2ccc3ccccc3c2)c1 | > 5
25 | O=C(N1CCN(Cc2ccc(Oc3ccccc3)cc2)CC1)n1cccn1 | 0.0092
26 | CN(CCN(C)C(=O)n1cccn1)C(=O)OC(C)(C)C | 0.08
27 | Cc1ccc(COC(=O)n2cccn2)cc1 | > 5
28 | Cc1cnn(C(=O)N2CCN(Cc3ccc(Oc4ccccc4)cc3)CC2)c1 | 0.21
29 | O=C(CCCCCc1ccccc1)n1cccn1 | > 5
30 | O=C(NCc1ccc2ccccc2c1)n1cccn1 | > 5
31 | Cc1cnn(C(=O)N2CCCN(Cc3ccc(Oc4ccccc4)cc3)CC2)c1 | 0.11
32 | N#Cc1cnn(C(=O)CCCCCc2ccccc2)c1 | > 5
33 | N#Cc1cnn(C(=O)N2CCN(Cc3ccc(-c4ccccc4)cc3)CC2)c1 | 0.00019
34 | CN(CCN(C)C(=O)n1cccn1)Cc1ccc(Oc2ccccc2)cc1 | 0.01
35 | CC(C)(C)OC(=O)N1CCN(C(=O)n2cccn2)CC1 | 0.34
36 | Cc1cnn(C(=O)OCCCc2ccccc2)c1 | > 5
37 | Cc1ccc(CNC(=O)n2cccn2)cc1 | > 5
38 | Cc1cnn(C(=O)OCc2ccc(Oc3ccccc3)cc2)c1 | 0.58
39 | Cc1cnn(C(=O)Nc2ccc3ccccc3c2)c1 | > 5
40 | O=C(Oc1ccc2ccccc2c1)n1cccn1 | > 5
41 | Cc1cnn(C(=O)N(C)CCN(C)C(=O)OC(C)(C)C)c1 | 0.71
42 | N#Cc1cnn(C(=O)CCCCCCc2ccccc2)c1 | > 5
43 | Cc1cnn(C(=O)N2CCCN(Cc3cccc(OCc4ccccc4)c3)CC2)c1 | 0.21
44 | N#Cc1cnn(C(=O)Nc2ccc3ccccc3c2)c1 | > 5

Row | SMILES | Ki [µM]
45 | Cc1cnn(C(=O)Cc2ccc(-c3ccccc3)cc2)c1 | > 5
46 | Cc1cnn(C(=O)N2CCN(C(=O)OC(C)(C)C)CC2)c1 | 0.85
47 | Cc1cnn(C(=O)Cc2ccc3ccccc3c2)c1 | 5
48 | Cc1cnn(C(=O)N2CCN(Cc3cccc(Oc4ccccc4)c3)CC2)c1 | 0.045
49 | O=C(NCc1ccc(-c2ccccc2)cc1)n1cccn1 | > 5
50 | O=C(CCCCc1ccccc1)n1cccn1 | > 5
51 | N#Cc1cnn(C(=O)N2CCCN(Cc3ccc(Oc4ccccc4)cc3)CC2)c1 | 0.001
52 | COC(=O)c1cnn(C(=O)N2CCN(Cc3ccc4ccccc4c3)CC2)c1 | 0.00036
53 | Cc1cnn(C(=O)N2CCN(Cc3ccccc3)CC2)c1 | 0.25
54 | Cc1cnn(C(=O)OCc2ccc(OCc3ccccc3)cc2)c1 | 1.26
55 | Cc1cnn(C(=O)OCCCCc2ccccc2)c1 | > 5
56 | Cc1cnn(C(=O)N2CCCN(C(=O)OC(C)(C)C)CC2)c1 | 2.9
57 | Cc1cnn(C(=O)Oc2ccc3ccccc3c2)c1 | > 5
58 | N#Cc1cnn(C(=O)N2CCCN(Cc3cccc(OCc4ccccc4)c3)CC2)c1 | 0.0007
59 | Cc1ccc(COC(=O)n2cc(C#N)cn2)cc1 | > 5
60 | Cc1cnn(C(=O)NCc2ccc(-c3ccccc3)cc2)c1 | > 5
61 | O=C(CCCCCCc1ccccc1)n1cccn1 | > 5
62 | Cc1cnn(C(=O)OCc2ccc3ccccc3c2)c1 | > 5
63 | Cc1cnn(C(=O)CCCCCc2ccccc2)c1 | > 5
64 | CN(CCN(C)C(=O)n1cc(C#N)cn1)Cc1cccc(Oc2ccccc2)c1 | 0.0012
65 | Cc1cnn(C(=O)OCCCCCc2ccccc2)c1 | > 5
66 | N#Cc1cnn(C(=O)Cc2ccc3ccccc3c2)c1 | > 5

Row | SMILES | Ki [µM]
67 | Cc1cnn(C(=O)CCCCc2ccccc2)c1 | > 5
68 | Cc1ccc(CNC(=O)n2cc(C)cn2)cc1 | > 5
69 | N#Cc1cnn(C(=O)N2CCN(Cc3cccc(Oc4ccccc4)c3)CC2)c1 | 0.00019
70 | CC(C)(C)OC(=O)N1CCCN(C(=O)n2cc(C#N)cn2)CC1 | 0.05
71 | Cc1cnn(C(=O)N2CCN(Cc3cccc(OCc4ccccc4)c3)CC2)c1 | 0.025
72 | Cc1cnn(C(=O)NCCCCc2ccccc2)c1 | 0.55
73 | Cc1cnn(C(=O)N(C)CCN(C)Cc2cccc(Oc3ccccc3)c2)c1 | 0.02
74 | N#Cc1cnn(C(=O)N2CCN(Cc3cccc(OCc4ccccc4)c3)CC2)c1 | 0.00015
75 | Cc1cnn(C(=O)CCCCCCc2ccccc2)c1 | > 5
76 | O=C(Cc1ccc2ccccc2c1)n1cccn1 | > 5
77 | O=C(N1CCN(Cc2ccc3ccccc3c2)CC1)n1cc(I)cn1 | 0.00029
78 | Cc1ccc(CNC(=O)n2cc(C#N)cn2)cc1 | > 5
79 | N#Cc1cnn(C(=O)OCCCc2ccccc2)c1 | 3.5
80 | N#Cc1cnn(C(=O)NCc2ccc(-c3ccccc3)cc2)c1 | > 5
81 | N#Cc1cnn(C(=O)OCc2ccc(-c3ccccc3)cc2)c1 | > 5
82 | Cc1cnn(C(=O)NCCCCCc2ccccc2)c1 | 0.56
83 | O=C(N1CCN(Cc2ccc(-c3ccccc3)cc2)CC1)n1cccn1 | 0.012
84 | Cc1cnn(C(=O)NCc2ccc3ccccc3c2)c1 | > 5
85 | O=C(NCc1ccc(Oc2ccccc2)cc1)n1cccn1 | 0.18
86 | N#Cc1cnn(C(=O)NCCCCCc2ccccc2)c1 | 0.018
87 | O=C(OCCCCc1ccccc1)n1cccn1 | 0.71
88 | CN(CCN(C)C(=O)n1cc(C#N)cn1)Cc1ccc(Oc2ccccc2)cc1 | 0.002

Row | SMILES | Ki [µM]
89 | Cc1cnn(C(=O)NCCCc2ccccc2)c1 | 3
90 | Cc1ccc(COC(=O)n2cc(C)cn2)cc1 | > 5
91 | O=C(NCCCCc1ccccc1)n1cccn1 | 0.29
92 | O=C(N1CCN(Cc2cccc(Oc3ccccc3)c2)CC1)n1cccn1 | 0.0061
93 | O=C(OCc1ccc(-c2ccccc2)cc1)n1cccn1 | > 5
94 | CN(CCN(C)C(=O)n1cc(C#N)cn1)C(=O)OC(C)(C)C | 0.016
95 | N#Cc1cnn(C(=O)N2CCN(Cc3ccccc3)CC2)c1 | 0.075
96 | N#Cc1cnn(C(=O)Cc2ccc(-c3ccccc3)cc2)c1 | > 5
97 | N#Cc1cnn(C(=O)CCCCc2ccccc2)c1 | > 5
98 | O=C(OCc1ccc2ccccc2c1)n1cccn1 | > 5
99 | Cc1cnn(C(=O)N2CCCN(Cc3cccc(Oc4ccccc4)c3)CC2)c1 | 0.075
100 | N#Cc1cnn(C(=O)NCc2ccc(Oc3ccccc3)cc2)c1 | 0.0098
101 | O=C(OCc1ccc(Oc2ccccc2)cc1)n1cccn1 | 0.46
102 | N#Cc1cnn(C(=O)N2CCN(Cc3ccc(Oc4ccccc4)cc3)CC2)c1 | 0.0001
103 | N#Cc1cnn(C(=O)OCCCCc2ccccc2)c1 | 0.21
104 | N#Cc1cnn(C(=O)NCCCc2ccccc2)c1 | 0.34
105 | O=C(N1CCN(Cc2ccccc2)CC1)n1cccn1 | 0.18
106 | N#Cc1cnn(C(=O)OCCCCCc2ccccc2)c1 | 4.2
107 | N#Cc1cnn(C(=O)OCc2ccc(Oc3ccccc3)cc2)c1 | 0.06
108 | N#Cc1cnn(C(=O)OCc2ccc3ccccc3c2)c1 | > 5
